Results on two compounds are retold here after patent US4482709A, “Inclusion compounds of cyclodextrin with sulfur-containing compounds” (Santen Pharmaceutical Co., Ltd., priority 1981, dated 1984).

The nature of the series: Solubility Test (solubility in water). The format is physicochemical. From the text: Solubility in water of inclusion compound of cyclodextrin with compound A or compound C is shown below. As the result, the inclusion compound is extremely more soluble in water than the starting compound.

≈ marks a conversion by molar mass, not a printed value.

For `O=C(O)[C@@H]1CS[C@H](c2ccccc2O)N1C(=O)CCS` [Compound A, (2R,4R)-2-(2-hydroxyphenyl)-3-(3-mercaptopropanoyl)-4-thiazolidinecarboxylic acid], the solubility was 1600 µg/mL (≈ 5110 µM). Next, `O=C(O)[C@@H]1CSC(c2ccccc2O)N1C(=O)CCSSCCC(=O)N1C(c2ccccc2O)SC[C@H]1C(=O)O` (stereo partly drawn) [Compound C, (4R,4'R)-3,3'-[3,3'-dithiobis(propanoyl)]bis[2-(2-hydroxyphenyl)-4-thiazolidinecarboxylic acid]]: 100 µg/mL (≈ 160 µM).

In general, solubility refers to how much of the substance goes into solution per volume.
